Results on two compounds are retold here after PMC9404792, “Synthesis and Antioxidant Properties of HeteroBisNitrones Derived from Benzene Dicarbaldehydes” (Antioxidants, 2022).

SMILES strings stand for the structures.

The target of this experiment is T1, soybean lipoxygenase (LOX) (Glycine max, UniProt P08170).
T1 construct: gene LOX1.1
T1 sequence (P08170 1-839): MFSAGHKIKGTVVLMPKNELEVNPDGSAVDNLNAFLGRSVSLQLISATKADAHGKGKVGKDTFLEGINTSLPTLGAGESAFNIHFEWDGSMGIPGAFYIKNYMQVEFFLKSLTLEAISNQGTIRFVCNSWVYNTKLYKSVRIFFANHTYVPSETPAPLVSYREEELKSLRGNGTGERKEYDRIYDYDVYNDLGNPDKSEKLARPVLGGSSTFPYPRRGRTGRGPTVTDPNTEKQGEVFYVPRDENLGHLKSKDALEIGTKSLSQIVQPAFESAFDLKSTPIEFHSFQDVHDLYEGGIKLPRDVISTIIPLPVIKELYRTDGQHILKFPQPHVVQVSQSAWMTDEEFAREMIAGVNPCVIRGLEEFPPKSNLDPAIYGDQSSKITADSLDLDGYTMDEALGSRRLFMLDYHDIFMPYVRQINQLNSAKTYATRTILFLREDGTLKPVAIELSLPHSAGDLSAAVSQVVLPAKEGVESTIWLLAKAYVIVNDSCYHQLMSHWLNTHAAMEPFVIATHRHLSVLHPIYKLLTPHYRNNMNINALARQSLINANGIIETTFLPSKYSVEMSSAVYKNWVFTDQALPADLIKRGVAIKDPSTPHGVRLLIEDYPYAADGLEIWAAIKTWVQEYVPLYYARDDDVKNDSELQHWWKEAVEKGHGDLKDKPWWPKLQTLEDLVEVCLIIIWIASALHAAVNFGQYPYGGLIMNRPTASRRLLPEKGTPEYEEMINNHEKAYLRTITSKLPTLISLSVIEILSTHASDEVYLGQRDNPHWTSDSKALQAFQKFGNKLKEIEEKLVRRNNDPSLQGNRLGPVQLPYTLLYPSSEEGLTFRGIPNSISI
The experiment in a line: UV assay at […] nm of sodium linoleate conversion to 13-hydroperoxylinoleic acid. The experiment is classed as biochemical. As to conditions: read-out: LOX Inhibition (% or IC50 [μM]).

As a reminder, the IC50 is the midpoint of a concentration-inhibition curve.

For the compound `C/[N+]([O-])=C/c1ccccc1/C=[N+](\[O-])Cc1ccccc1` [hBN8, (Z)-N-Benzyl-1-(2-((Z)-(methyloxidoazaneylidene)methyl)phenyl)methanimine oxide], the IC50 is 82.5 µM.
`CC(C)(C)/[N+]([O-])=C/c1ccccc1/C=[N+](\[O-])Cc1ccccc1` [hBN9, (Z)-N-Benzyl-1-(2-((Z)-(tert-butyloxidoazaneylidene)methyl)phenyl)methanimine oxide]: the IC50 came out at 57.5 µM.
